Source: article PMC6430500, “3-Fluoro-4-hydroxyprolines: Synthesis, Conformational Analysis, and Stereoselective Recognition by the VHL E3 Ubiquitin Ligase for Targeted Protein Degradation” (Journal of the American Chemical Society, 2018)
Read-outs that look alike come from different tables or passages of the source.

Key:
MV4;11 cells = experiment: CellTiter-Glo cell viability assay; format: cell-based; settings: for EC50: MV4-11, 72 h
Experimental: MV4;11 cells (15000 cells per well) were dosed for 72 h with compounds serially diluted (1:3) on a clear-bottom 384-well plate with a final concentration of 0.05% (v/v) DMSO. After treatment, Promega CellTiter-Glo luminescent cell viability assay (G7572) was added to the cells according to the manufacturer instructions. The signal from each well was recorded on a BM G Labtech Pherastar luminescence plate reader with recommended settings.
Normalized data were analyzed and plotted with Graphpad Prism software in the ‘log(inhibitor) vs. response -- Variable slope (four parameters)’ module. EC50 values of each test compound were […]

Brd4BD2 = biological target: T1, Brd4BD2 (Homo sapiens, UniProt O60885); experiment: ITC of PROTACs, binary titration with Brd4BD2; format: binding; settings: PROTAC in cell, Brd4BD2 in syringe
T1 construct: Brd4BD2 (333–460); made in house; host or cells: E. coli BL21(DE3)
Description: structure (C2 R, C3 S, C4 R) assumed on the basis of unchanging stereogenic centres in the synthesis.
Final R(F) = 0.033, wR(F 2) = 0.085 for 275 parameters and 3901 reflections with I > 2σ(I) (corresponding R-values based on all 4067 reflections = 0.035 and 0.086, respectively), CCDC […]
Protein expression and purification.
Wild-type versions of human proteins VHL (UniProt accession number: P40337), ElonginC […]
expression. For expression of VBC, N-terminally His6-tagged VHL (54–213), ElonginC (17–112) and ElonginB (1–104) were co- expressed in Escherichia coli BL21(DE3) at 24 °C for 16 h using 0.3 mM isopropyl β-D -1-thiogalactopyranoside (IPTG). E. coli cells were lysed using a pressure cell homogenizer (Stansted Fluid Power) and lysate clarified by centrifugation. His6-tagged VCB was purified on a HisTrap FF affinity column (GE Healthcare) by elution with an imidazole gradient. The His6tag was removed using TEV protease and the untagged complex dialyzed into low -concentration imidazole buffer. VCB was then flowed through the HisTrap FF column a second time, allowing impurities to bind, as the complex eluted without binding. VCB was then additionally purified by anion exchange and size-exclusion chromatography using ResourceQ and Superdex-75 columns (GE Healthcare), respectively. The final purified complex was stored in 20 mM Bis–Tris, pH 7, 150 mM sodium chloride and 1 mM dithiothreitol (DTT). Brd2BD1 (71–194), and Brd4BD2 (333–460) were expressed with an N-terminal His6 tag in E. coli BL21(DE3) at 18 °C for 20 h using 0.2 mM IPTG.
His6-tagged BDs were purified on nickel Sepharose 6 fast flow beads (GE Healthcare) by elution with increasing concentrations of imidazole. For crystallography the His6-tagged BD was cleaved with TEV protease and dialyzed into low-concentration imidazole buffer. The BD was then flowed over the nickel beads a second time to remove impurities and protease. BDs were then additionally purified by size-exclusion chromatography using a Superdex-75 column. The BDs were purified by size-exclusion chromatography using a Superdex-75 column. The final purified proteins were stored in 20 mM 4-(2-hydroxyethyl)-1-piperazineethanesulfonic acid (HEPES), pH 7.5, 150 mM sodium chloride and 1 mM DTT. All chromatography purification steps were performed using Äkta FPLC purification systems (GE Healthcare) or glass econo-columns (Bio-Rad) at room temperature.
Isothermal titration calorimetry (ITC) of peptides and ligands
Titrations were performed on an ITC200 micro-calorimeter (GE Healthcare). The peptides were dissolved in buffer (20 mM Bis–Tris propane, 100 mM NaCl, 1 mM tris(2-carboxyethyl)phosphine […]
(TCEP), pH 7.4) at 100 µM. The compounds were titrated against 10 µM VBC complex, equilibrated in the same buffer. The titrations consisted of 20 injections of 2 µL of peptide solution at a rate of 0.5 µL/s at 120 s time intervals. An initial injection of ligand (0.4 µL) was made and discarded during data analysis. All experiments were performed at 25°C while stirring at 650 rpm.
Ligands 14a- b were diluted from DMSO stock solution to 300 µM in buffer (20 mM Bis-Tris propane, 150 mM NaCl, 1 mM TCEP, pH 7.4). The compounds were titrated against 30 µM VBC complex, equilibrated in the same buffer. The final concentration of DMSO in each experiment was […]
The data were fitted to a single-binding-site model using the MicroCal PEAQ-ITC analysis software provided by the manufacturer to obtain the stoichiometry n, the dissociation constant K d, and the enthalpy of binding ΔH . The reported values are the mean ± s.e.m. from independent measurements.
Isothermal titration calorimetry (ITC)of PROTACs
The titrations were all performed as reverse mode (protein in syringe, ligand in cell) and consisted of 19 injections of 2 µl protein solution (20 mM Bis–Tris propane, 100 mM NaCl, 1 mM tris(2-carboxyethyl)phosphine (TCEP), pH 7.4) at a rate of 0.5 µl/s at 120 s time intervals. An initial injection (0.4 µl) was made and discarded during data analysis. […]

Structure (SMILES) | pEC50, antiproliferative activity (MV4;11 cells; 72 h) | Emax (MV4;11 cells; Homo sapiens, 72 h, read-out: Emax, maximal response at highest concentration) | EC50 (MV4;11 cells; Homo sapiens, read-out: EC50, antiproliferative activity) | EC50 (MV4;11 cells; Homo sapiens, read-out: pEC50, antiproliferative activity (converted)) | Kd (Brd4BD2) | ΔG (Brd4BD2) | ΔH (Brd4BD2) | –TΔS (Brd4BD2) | antiproliferative effect (in words) (MV4;11 cells; 72 h, compared to MZ1 or 15a)
Cc1ncsc1-c1ccc(CNC(=O)[C@@H]2[C@@H](F)[C@@H](O)CN2C(=O)[C@@H](NC(=O)COCCOCCOCCNC(=O)C[C@@H]2N=C(c3ccc(Cl)cc3)c3c(sc(C)c3C)-n3c(C)nnc32)C(C)(C)C)cc1 [15a] | 6.5 | 92% | 330 nM | 330 nM | 28 ± 2 nM | -10.30 kcal/mol | -10.4 ± 0.8 kcal/mol | 0.1 ± 0.6 kcal/mol | 
Cc1ncsc1-c1ccc(CNC(=O)[C@@H]2[C@H](F)[C@@H](O)CN2C(=O)[C@@H](NC(=O)COCCOCCOCCNC(=O)C[C@@H]2N=C(c3ccc(Cl)cc3)c3c(sc(C)c3C)-n3c(C)nnc32)C(C)(C)C)cc1 [15b] |  |  |  |  | 32 ± 3 nM | -10.3 ± 0.1 kcal/mol | -9.3 ± 0.4 kcal/mol | -0.9 ± 0.4 kcal/mol | much weaker antiproliferative effect
